Laboratory results reported in US20230000842A1, “METHODS OF TREATING CARTILAGE DISORDERS THROUGH INHIBITION OF CLK AND DYRK” (SAMUMED, LLC, priority 2019, published 2023).

How the values were obtained:
[1] = target: CLK2 kinase (Homo sapiens, UniProt P49760); assay: CLK2 kinase activity assay (Z-lyte FRET); format: biochemical; details: Z-lyte Ser/Thr 6 peptide, 60 μM ATP, 1 h at room temperature;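 also: FRET read-out as coumarin to fluorescein emission ratio, unphosphorylated peptide as 0% and phosphorylated peptide as 100% controls, duplicate reactions, non-linear regression fit of dose-response curves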
Method: This is a non-radioactive assay using fluorescence resonance energy transfer (FRET) between coumarin and fluorescein to detect kinase activity which is represented as a ratio of coumarin emission/fluorescein emission.
The mixture was allowed to incubate with the representative compounds for one hour at room temperature. All reactions were performed in duplicate. Unphosphorylated (“0% Control”) and phosphorylated (“100% control”) forms of Ser/Thr 6 served as control reactions. Additionally, an 11-point dose-response curve of Staurosporine (1 μM top) was run to serve as a positive compound control.
After incubation, Development Reagent A was diluted in Development Buffer then added to the reaction and allowed to further incubate for one hour at room temperature.
Dose-response curves were generated and inhibitory concentration (IC50) values were calculated using non-linear regression curve fit in the Dotmatics' Studies Software (Bishops Stortford, UK).

[2] = tested on: primary human mesenchymal stem cells (hMSCs); assay: Chondrogenesis screening using primary human mesenchymal stem cells; format: cell-based; details: Homo sapiens, Mesenchymal stem cells, hMSC chondrogenesis; for EC50: concentration required to induce 50% levels of chondrogenesis with TGF-β3 as positive control, read-out: Conc (nM) of 50% TGF-β3 activity; for Emax: maximum activity relative to TGF-β3 (10 ng/mL) positive control, read-out: Max. Activity as % TGF-β3 activity
Procedure, shortened: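 Primary hMSCs at passage 3–6 were treated across compound concentrations, with TGF-β3 as positive control. Chondrogenic nodule area per well was normalized to 3 DMSO wells on the same plate (fold over DMSO, 2–3 replicates). EC50, maximum activity and the dose reaching it were derived.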

[3] = tested on: Wnt pathway activity (SW480 colon carcinoma cells stably expressing the Sp5-Luc reporter); assay: Wnt pathway activity screening assay (Sp5-Luc reporter gene assay); details: Homo sapiens
[4] = target: CLK3 kinase (Homo sapiens, UniProt P49761); assay: CLK3 kinase activity assay (Z-lyte FRET); format: biochemical; details: Z-lyte Ser/Thr 18 peptide, 156 μM ATP, 1 h at room temperature;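 also: kinase activity read as coumarin/fluorescein emission ratio by FRET, unphosphorylated peptide as 0% and phosphorylated peptide as 100% control, values from non-linear regression of dose-response curves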
[5] = tested on: MMP-3 levels in supernatant of chondrocytes stimulated with IL1-β; assay: Chondrocyte protection assay compound screening (MMP-3 LANCE Ultra); format: cell-based, human; details: Homo sapiens, Chondrocyte, IL1-β 10 ng/mL overnight, 11-point curves from 3 μM to 0.05 nM; for Emax: read-out: Maximum % Inhibition
Procedure, shortened: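 Primary human chondrocytes (passage 2–5) in differentiation medium were stimulated with 10 ng/mL IL1-β for an overnight incubation at 37 °C. MMP-3 in 1:7-diluted supernatant was read by TR-FRET immunoassay against a standard curve, normalised to IL1-β-stimulated wells; EC50 and maximum % inhibition came from nonlinear regression.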

[6] = SW480, Table 4, SW480 cells stably expressing Sp5-Luc reporter, 10-point dose-response from 10 μM, 36 to 48 hours

Sequence of CLK3 kinase (P49761 whole entry): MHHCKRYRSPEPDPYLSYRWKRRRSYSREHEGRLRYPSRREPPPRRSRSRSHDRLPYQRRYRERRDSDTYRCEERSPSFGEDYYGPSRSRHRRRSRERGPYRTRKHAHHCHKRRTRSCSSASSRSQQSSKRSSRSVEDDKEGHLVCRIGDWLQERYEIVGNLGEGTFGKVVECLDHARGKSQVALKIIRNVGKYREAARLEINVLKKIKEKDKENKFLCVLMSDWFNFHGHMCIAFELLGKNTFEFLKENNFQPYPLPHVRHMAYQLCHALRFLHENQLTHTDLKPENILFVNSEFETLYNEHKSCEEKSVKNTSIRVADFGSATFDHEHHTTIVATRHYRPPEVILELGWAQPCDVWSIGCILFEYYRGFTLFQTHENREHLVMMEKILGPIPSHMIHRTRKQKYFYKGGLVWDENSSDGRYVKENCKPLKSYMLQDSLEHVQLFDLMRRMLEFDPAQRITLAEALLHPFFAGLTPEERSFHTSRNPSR
Sequence of CLK2 kinase (P49760 whole entry): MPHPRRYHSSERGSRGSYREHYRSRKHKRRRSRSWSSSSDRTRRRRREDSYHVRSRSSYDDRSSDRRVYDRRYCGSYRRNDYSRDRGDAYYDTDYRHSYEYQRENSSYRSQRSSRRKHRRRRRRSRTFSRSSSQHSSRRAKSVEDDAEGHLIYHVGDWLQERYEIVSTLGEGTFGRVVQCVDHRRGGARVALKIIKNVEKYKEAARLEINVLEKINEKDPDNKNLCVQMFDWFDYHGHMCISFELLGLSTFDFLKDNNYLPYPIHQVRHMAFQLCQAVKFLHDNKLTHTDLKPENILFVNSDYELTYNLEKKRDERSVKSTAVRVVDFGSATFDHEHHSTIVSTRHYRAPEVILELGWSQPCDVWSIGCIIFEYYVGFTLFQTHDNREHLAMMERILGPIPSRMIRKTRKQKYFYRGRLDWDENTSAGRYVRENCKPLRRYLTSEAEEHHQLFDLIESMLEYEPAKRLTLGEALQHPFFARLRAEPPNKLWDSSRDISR

| SMILES | EC50 [1] [nM] | EC50 [2] [nM] | Emax [2] [%] | EC50 [3, 6] [nM] | EC50 [4] [nM] | EC50 [5] [nM] | Emax [5] [%] | EC50 ([3]; SW480) [nM] |
| --- | --- | --- | --- | --- | --- | --- | --- | --- |
| CC(C)Oc1cncc(C(=O)Nc2c[nH]nc2C(=O)Nc2ccc(OC3CCN(C)CC3)nc2)c1 [compound 10] | 6 | 2700 | 140 | 90.3 | 1780 | 1.5 | 46.9 | – |
| O=C(Nc1c[nH]nc1C(=O)Nc1ccc(N2CCC(F)(F)C2)nc1)c1cncc(OC2CCNCC2)c1 [compound 12] | 6 | – | 75.2 | 2220 | 6020 | 280 | 88.7 | – |
| O=C(Nc1c[nH]nc1C(=O)Nc1cncc(-c2cccc(F)c2)c1)c1cncc(OC2CCNCC2)c1 [compound 14] | 10 | – | 89.5 | 1600 | 4300 | 339 | 71.9 | – |
| O=C(Nc1ccc(CN2CCCC2)cc1)c1n[nH]cc1/C=C/c1cccnc1 [compound 17] | 17 | 900 | 194 | 988 | 2670 | 3.7 | 64.7 | – |
| Fc1ccc(-c2nnc(-c3n[nH]cc3/C=C/c3cccnc3)o2)cc1 [compound 23] | 27 | – | 23.4 | 1510 | 627 | ≥ 3000 | 51.7 | – |
| CN1CCN(c2nccc3[nH]c(-c4n[nH]cc4/C=C/c4cncc(F)c4)nc23)CC1 [compound 25] | 1 | – | 39 | 325 | 326 | ≥ 3000 | 91.9 | – |
| Fc1cccc(-c2cccc3[nH]c(-c4n[nH]cc4/C=C/c4cncc(CN5CCCC5)c4)nc23)c1 [compound 26] | 1 | 2700 | 81.7 | 82.1 | 492 | 1.4 | 64.6 | – |
| CC(C)OCCCNC(=O)c1n[nH]c2ccc(-c3cccnc3)cc12 [compound 58] | 10 | – | 92.5 | 464 | 9840 | 10.8 | 61.1 | – |
| CC(C)NC(=O)c1n[nH]c2ccc(-c3cncc(CN4CCC(F)(F)CC4)c3)cc12 [compound 75] | 13 | 2700 | 104 | 47.1 | 4020 | 8 | 95.1 | – |
| O=C(Nc1cccnc1)c1n[nH]c2ccc(-c3cncc(CN4CC5CC(C4)O5)c3)cc12 [compound 101] | 1 | 900 | 121 | – | 44 | ≥ 3000 | 45.7 | 67 |
| CC(C)Oc1ccc(NC(=O)c2n[nH]c3ccc(-c4cncc(CN5CC6CC(C5)O6)c4)cc23)cn1 [compound 102] | 2 | 30 | 75.7 | – | 88 | 0.2 | 26.3 | 61 |
| CN1CCC(n2cc(NC(=O)c3n[nH]c4ccc(-c5cnn(C)c5)cc34)cn2)CC1 [compound 106] | 1 | – | 23.6 | 79 | 55 | 818 | 100 | – |
| Cn1cc(-c2cc3c(C(=O)Nc4ccc(CN5CCCC5)cc4)n[nH]c3cc2F)cn1 [compound 107] | 1 | – | 27.4 | 242 | 90 | ≥ 3000 | 22.9 | – |
| CN(C)C(=O)Nc1cncc(-c2cnc3[nH]nc(-c4nc5c(-c6cccc(F)c6)cncc5[nH]4)c3c2)c1 [compound 130] | 3 | – | 68.1 | 10 | 18 | 40.6 | 60.5 | – |
| CC(C)C(=O)Nc1cncc(-c2ccc3[nH]nc(-c4nc5c(-c6ccccc6F)cncc5[nH]4)c3c2)c1 [compound 173] | 4 | 30 | 102 | 4 | 24 | ≥ 3000 | 90.2 | – |
| CC(C)CC(=O)Nc1cncc(-c2ccc3[nH]nc(-c4nc5c(-c6cccnc6)cncc5[nH]4)c3c2)c1 [compound 189] | 8 | 100 | 198 | 12 | 26 | 111 | 100 | – |
| CCCC(=O)Nc1cncc(-c2ccc3[nH]nc(-c4nc5c(N6CCCCC6)cncc5[nH]4)c3c2)c1 [compound 208] | 4 | – | 77.3 | 42 | 58 | 20.5 | 39 | – |
| CN1CCN(c2nccc3[nH]c(-c4n[nH]c5cc(F)c(-c6cnn(C)c6)cc45)nc23)CC1 [compound 219] | 1 | 30 | 113 | 85.7 | 26 | 35.5 | 87.3 | – |
| c1cncc(-c2ccc3[nH]nc(-c4nc5c(N6CCOCC6)cncc5[nH]4)c3c2)c1 [compound 220] | 1 | – | 90.4 | 23 | 61 | 13.6 | 100 | – |
| CN1CCN(c2cc(C(=O)Nc3ncc4ccc(-c5cnn(C)c5)cc4n3)ccn2)CC1 [compound 607] | 6 | – | – | 468 | 135 | 417 | 79.7 | – |
| Cn1cc(-c2ccc3cnc(NC(=O)c4ccc5nccnc5c4)cc3n2)cn1 [compound 608] | 8 | – | – | 447 | 141 | ≥ 3000 | 18.3 | – |
| CC(C)OC(=O)N1CCC(n2cc(C(=O)Nc3cc4cc(-c5cnn(C)c5)ncc4cn3)cn2)CC1 [compound 609] | 6 | – | – | 824 | 61 | 154 | 50.2 | – |
| CN1CCC2(CC1)CN(c1cc(C(=O)Nc3cc4cc(-c5cnn(C)c5CN5CCCCC5)cnc4cn3)ccn1)C2 [compound 610] | 9 | – | – | 607 | 31 | ≥ 3000 | 30.4 | – |
| Cc1ncc(C(=O)Nc2cc3nc(-c4cnc(C)n4C)ccc3cn2)s1 [compound 611] | 3 | – | – | 107 | 31 | 8.7 | 68.3 | – |
| CN1CC=C(c2cc(C(=O)Nc3cc4cc(-c5cncc(NC(C)(C)C)n5)cnc4cn3)ccn2)CC1 [compound 612] | 5 | – | – | 357 | 12 | ≥ 3000 | 38.6 | – |
| O=C(Nc1cc2cc(-c3cncc(NC4CCNCC4)n3)ncc2cn1)C1CCOCC1 [compound 613] | 7 | – | – | 3640 | 133 | 46.6 | 51.4 | – |
| CC(C)n1cc(C(=O)Nc2cc3cc(-c4cncc(NC5CCN(C)CC5)n4)ncc3cn2)cn1 [compound 614] | 7 | – | – | 164 | 97 | ≥ 3000 | 41.1 | – |
| CN1CCC(n2cc(C(=O)Nc3ncc4ccc(-c5cncc6[nH]ccc56)cc4n3)cn2)CC1 [compound 616] | 6 | – | – | 1400 | 19 | ≥ 3000 | 48.3 | – |
